Key:
[1] = system: Trypanosoma cruzi; experiment: Antitrypanosomal activity against bloodstream form of Trypanosoma cruzi Y trypomastigotes infected in African green monkey Vero cells assessed as increase in parasite lysis measured after 24 hrs by Neubauer chamber method; format: functional, organism-based
[2] = system: HepG2; experiment: Genotoxicity in human HepG2 assessed as number of micronucleated cells at 188 uM measured after 24 hrs by micronucleus test (reference value: 14 to 18); format: toxicity, cell-based; details: hepg2, 24 h
[3] = Mutagenicity in Salmonella typhimurium TA98 measured after 20 mins in presence of S9 fraction by microsome assay; format: toxicity, subcellular; details: salmonella enterica subsp. enterica serovar typhimurium, s9, 20 min, dose 5-100 µg
[4] = system: RAW264.7; experiment: Genotoxicity in mouse RAW264.7 cells assessed as number of micronucleated cells at 1880 uM measured after 24 hrs by micronucleus test (reference value: 12 to 15); format: toxicity, cell-based; details: raw264.7, 24 h
[5] = Toxicity in Salmonella typhimurium YG1021 at 5 to 100 ug/plate after 20 mins by colony counting method; details: salmonella enterica subsp. enterica serovar typhimurium, dose 5-100 µg
[6] = Mutagenicity in Salmonella typhimurium TA97 assessed as revertant/ug measured after 20 mins in absence of S9 fraction by microsome assay; format: toxicity; details: salmonella enterica subsp. enterica serovar typhimurium, microsomes
[7] = Genotoxicity in mouse RAW264.7 cells assessed as survival at 376 uM measured after 24 hrs by micronucleus test (reference value: 100%); format: toxicity, cell-based; details: read-out: Survival
[8] = Mutagenicity in Salmonella typhimurium TA98 measured after 20 mins in absence of S9 fraction by microsome assay; format: toxicity; details: salmonella enterica subsp. enterica serovar typhimurium, microsomes, dose 5-100 µg
[9] = Mutagenicity in Salmonella typhimurium TA100 assessed as revertant/ug measured after 20 mins in absence of S9 fraction by microsome assay; format: toxicity; details: salmonella enterica subsp. enterica serovar typhimurium, microsomes
[10] = system: RAW264.7; experiment: Cytotoxicity against mouse RAW264.7 cells at 18.8 to 376 uM measured after 24 hrs by LDH assay; format: cell-based; details: raw264.7, 24 h, dose 18.8-376 µM
[11] = Mutagenicity in Salmonella typhimurium TA100 assessed as revertant/ug measured after 20 mins in presence of S9 fraction by microsome assay; format: toxicity, subcellular; details: salmonella enterica subsp. enterica serovar typhimurium, s9, 20 min
[12] = system: HepG2; experiment: Genotoxicity in human HepG2 assessed as number of micronucleated cells at 3760 uM measured after 24 hrs by micronucleus test (reference value: 14 to 18); format: toxicity, cell-based; details: hepg2, 24 h
[13] = Selectivity index, ratio of GI50 for mouse RAW264.7 cells assessed as reduction in cell viability measured after 24 hrs by WST1 assay to IC50 for antitrypanosomal activity against Trypanosoma cruzi Y axenic amastigotes infected in African green monkey Vero cells; format: toxicity; details: read-out: Selectivity Index
[14] = system: RAW264.7; experiment: Genotoxicity in mouse RAW264.7 cells assessed as number of micronucleated cells at 376 uM measured after 24 hrs by micronucleus test (reference value: 12 to 15); format: toxicity, cell-based; details: raw264.7, 24 h
[15] = Genotoxicity in mouse RAW264.7 cells assessed as survival at 1880 uM measured after 24 hrs by micronucleus test (reference value: 100%); format: toxicity, cell-based; details: read-out: Survival
[16] = Mutagenicity in Salmonella typhimurium YG1021 at 5 to 100 ug/plate after 20 mins by microsome assay; format: toxicity; details: salmonella enterica subsp. enterica serovar typhimurium, microsomes
[17] = system: HepG2; experiment: Genotoxicity in human HepG2 assessed as mitotic index at 188 uM measured after 24 hrs by micronucleus test (reference value: 61 to 108); format: toxicity, cell-based; details: hepg2, 24 h
[18] = system: RAW264.7; experiment: Genotoxicity in mouse RAW264.7 cells assessed as mitotic index at 188 uM measured after 24 hrs by micronucleus test (reference value: 40 to 249); format: toxicity, cell-based; details: raw264.7, 24 h
[19] = Cytotoxicity against mouse RAW264.7 cells assessed as reduction in cell viability measured after 24 hrs by WST1 assay; format: cell-based
[20] = Genotoxicity in human HepG2 assessed as survival at 3760 uM measured after 24 hrs by micronucleus test (reference value: 100%); format: toxicity, cell-based; details: HepG2 cells, read-out: Survival
[21] = Genotoxicity in human HepG2 assessed as survival at 188 uM measured after 24 hrs by micronucleus test (reference value: 100%); format: toxicity, cell-based; details: HepG2 cells, read-out: Survival
[22] = Mutagenicity in Salmonella typhimurium TA97 measured after 20 mins in absence of S9 fraction by microsome assay; format: toxicity; details: salmonella enterica subsp. enterica serovar typhimurium, microsomes, dose 5-100 µg
[23] = system: HepG2; experiment: Genotoxicity in human HepG2 assessed as mitotic index at 3760 uM measured after 24 hrs by micronucleus test (reference value: 61 to 108); format: toxicity, cell-based; details: hepg2, 24 h
[24] = Mutagenicity in Salmonella typhimurium YG1024 at 5 to 100 ug/plate after 20 mins by microsome assay; format: toxicity; details: salmonella enterica subsp. enterica serovar typhimurium, microsomes, dose 5-100 µg
[25] = Genotoxicity in mouse RAW264.7 cells assessed as survival at 188 uM measured after 24 hrs by micronucleus test (reference value: 100%); format: toxicity, cell-based; details: read-out: Survival
[26] = system: HepG2; experiment: Genotoxicity in human HepG2 assessed as mitotic index at 376 uM measured after 24 hrs by micronucleus test (reference value: 61 to 108); format: toxicity, cell-based; details: hepg2, 24 h
[27] = Cytotoxicity against human HepG2 cells assessed as reduction in cell viability measured after 24 hrs by WST1 assay; format: cell-based
[28] = Toxicity in Salmonella typhimurium YG1024 at 5 to 100 ug/plate after 20 mins by colony counting method; details: salmonella enterica subsp. enterica serovar typhimurium, dose 5-100 µg
[29] = Mutagenicity in Salmonella typhimurium TA102 measured after 20 mins in presence of S9 fraction by microsome assay; format: toxicity, subcellular; details: salmonella enterica subsp. enterica serovar typhimurium, s9, 20 min, dose 5-100 µg
[30] = system: RAW264.7; experiment: Genotoxicity in mouse RAW264.7 cells assessed as mitotic index at 376 uM measured after 24 hrs by micronucleus test (reference value: 40 to 249); format: toxicity, cell-based; details: raw264.7, 24 h
[31] = Genotoxicity in human HepG2 assessed as survival at 1880 uM measured after 24 hrs by micronucleus test (reference value: 100%); format: toxicity, cell-based; details: HepG2 cells, read-out: Survival
[32] = system: HepG2; experiment: Genotoxicity in human HepG2 assessed as mitotic index at 1880 uM measured after 24 hrs by micronucleus test (reference value: 61 to 108); format: toxicity, cell-based; details: hepg2, 24 h
[33] = Mutagenicity in Salmonella typhimurium TA102 measured after 20 mins in absence of S9 fraction by microsome assay; format: toxicity; details: salmonella enterica subsp. enterica serovar typhimurium, microsomes, dose 5-100 µg
[34] = system: Trypanosoma cruzi; experiment: Antitrypanosomal activity against Trypanosoma cruzi Y axenic amastigotes infected in African green monkey Vero cells after 24 hrs by MTT assay; format: functional, organism-based
[35] = system: HepG2; experiment: Cytotoxicity against human HepG2 cells at 376 uM measured after 24 hrs by LDH assay; format: cell-based; details: hepg2, 24 h
[36] = Mutagenicity in Salmonella typhimurium TA100 measured after 20 mins in presence of S9 fraction by microsome assay; format: toxicity, subcellular; details: salmonella enterica subsp. enterica serovar typhimurium, s9, 20 min, dose 5-100 µg
[37] = system: RAW264.7; experiment: Genotoxicity in mouse RAW264.7 cells assessed as mitotic index at 3760 uM measured after 24 hrs by micronucleus test (reference value: 40 to 249); format: toxicity, cell-based; details: raw264.7, 24 h
[38] = system: HepG2; experiment: Genotoxicity in human HepG2 assessed as number of micronucleated cells at 376 uM measured after 24 hrs by micronucleus test (reference value: 14 to 18); format: toxicity, cell-based; details: hepg2, 24 h
[39] = Selectivity index, ratio of GI50 for human HepG2 cells assessed as reduction in cell viability measured after 24 hrs by WST1 assay to IC50 for antitrypanosomal activity against bloodstream form of Trypanosoma cruzi Y trypomastigotes infected in African green monkey Vero cells; format: toxicity; details: read-out: Selectivity Index
[40] = system: HepG2; experiment: Genotoxicity in human HepG2 assessed as number of micronucleated cells at 1880 uM measured after 24 hrs by micronucleus test (reference value: 14 to 18); format: toxicity, cell-based; details: hepg2, 24 h
[41] = system: RAW264.7; experiment: Genotoxicity in mouse RAW264.7 cells assessed as mitotic index at 1880 uM measured after 24 hrs by micronucleus test (reference value: 40 to 249); format: toxicity, cell-based; details: raw264.7, 24 h
[42] = Mutagenicity in Salmonella typhimurium TA97 assessed as revertant/ug measured after 20 mins in presence of S9 fraction by microsome assay; format: toxicity, subcellular; details: salmonella enterica subsp. enterica serovar typhimurium, s9, 20 min
[43] = system: RAW264.7; experiment: Genotoxicity in mouse RAW264.7 cells assessed as number of micronucleated cells at 3760 uM measured after 24 hrs by micronucleus test (reference value: 12 to 15); format: toxicity, cell-based; details: raw264.7, 24 h
[44] = Selectivity index, ratio of GI50 for human HepG2 cells assessed as reduction in cell viability measured after 24 hrs by WST1 assay to IC50 for antitrypanosomal activity against Trypanosoma cruzi Y axenic amastigotes infected in African green monkey Vero cells; format: toxicity; details: read-out: Selectivity Index
[45] = Mutagenicity in Salmonella typhimurium TA100 measured after 20 mins in absence of S9 fraction by microsome assay; format: toxicity; details: salmonella enterica subsp. enterica serovar typhimurium, microsomes, dose 5-100 µg
[46] = Mutagenicity in Salmonella typhimurium TA97 measured after 20 mins in presence of S9 fraction by microsome assay; format: toxicity, subcellular; details: salmonella enterica subsp. enterica serovar typhimurium, s9, 20 min, dose 5-100 µg
[47] = Genotoxicity in human HepG2 assessed as survival at 376 uM measured after 24 hrs by micronucleus test (reference value: 100%); format: toxicity, cell-based; details: HepG2 cells, read-out: Survival
[48] = Selectivity index, ratio of GI50 for mouse RAW264.7 cells assessed as reduction in cell viability measured after 24 hrs by WST1 assay to IC50 for antitrypanosomal activity against bloodstream form of Trypanosoma cruzi Y trypomastigotes infected in African green monkey Vero cells; format: toxicity; details: read-out: Selectivity Index
[49] = Genotoxicity in mouse RAW264.7 cells assessed as survival at 3760 uM measured after 24 hrs by micronucleus test (reference value: 100%); format: toxicity, cell-based; details: read-out: Survival
[50] = system: RAW264.7; experiment: Genotoxicity in mouse RAW264.7 cells assessed as number of micronucleated cells at 188 uM measured after 24 hrs by micronucleus test (reference value: 12 to 15); format: toxicity, cell-based; details: raw264.7, 24 h

For Cn1cnc([N+](=O)[O-])c1-n1cc(-c2cccc(N)c2)nn1, the IC50 [1] was 41.2 µM.
With Cn1cnc([N+](=O)[O-])c1-n1cncn1 the IC50 [1] was 354 µM.
With COC(=O)c1cn(-c2c([N+](=O)[O-])ncn2C)nn1 the IC50 [1] was 31.3 µM.
In the case of Cn1cnc([N+](=O)[O-])c1-n1cc(C2=CCCCC2)nn1, the IC50 [1] is reported as 41.7 µM.
For Cn1cnc([N+](=O)[O-])c1-n1cc(-c2ccccc2)nn1, the IC50 [1] was 25.2 µM.
For CCOC(=O)c1cn(-c2c([N+](=O)[O-])ncn2C)nn1, the Activity [2] was 17, the Activity [3] was “Non-Toxic” and the Activity [4] was 13. For the same molecule, the Activity [5] was “Toxic”, the Activity [6] was 2.19 revertants/µg and the viability at 24 h, 376 µM [7] was 99%. For the same molecule, the Activity [8] was “Non-Toxic”, the Activity [9] was 3.54 revertants/µg and the Activity [10] was “Non-Toxic”. The Activity [11] was 3.36 revertants/µg, the Activity [12] was 35 and the selectivity ratio at 24 h [13] was > 0.95. It also gave an Activity [14] of 10, a viability at 24 h, 1880 µM [15] of 95% and an IC50 [1] of 45.3 µM. For the same molecule, the Activity [16] was “Non-Toxic”, the Activity_index [17] was 55 and the Activity_index [18] was 58. For the same molecule, the GI50 at 24 h [19] was > 376 µM, the viability at 24 h, 3760 µM [20] was 90% and the viability at 24 h, 188 µM [21] was 99%. The Activity [22] was “Toxic”, the Activity_index [23] was 52 and the Activity [24] was “Non-Toxic”. The viability at 24 h, 188 µM [25] was 99%, the Activity_index [26] was 50 and the GI50 at 24 h [27] was > 376 µM. The Activity [28] was “Toxic”, the Activity [29] was “Toxic” and the Activity_index [30] was 80. For the same molecule, the viability at 24 h, 1880 µM [31] was 97%, the Activity_index [32] was 60 and the Activity [33] was “Toxic”. The IC50 [34] was 393 µM, the Activity [35] was “Toxic” and the Activity [36] was “Toxic”. The Activity_index [37] was 78, the Activity [38] was 21 and the selectivity ratio at 24 h [39] was > 8.3. The Activity [40] was 32, the Activity_index [41] was 100 and the Activity [42] was 0.714 µg. The Activity [43] was 13, the selectivity ratio at 24 h [44] was > 0.95 and the Activity [45] was “Toxic”. For the same molecule, the Activity [46] was “Toxic”, the viability at 24 h, 376 µM [47] was 99% and the selectivity ratio at 24 h [48] was > 8.3. It also gave a viability at 24 h, 3760 µM [49] of 90% and an Activity [50] of 11.

Reference: ChEMBL document CHEMBL4680133, “Novel nitroimidazole derivatives evaluated for their trypanocidal, cytotoxic, and genotoxic activities” (Eur J Med Chem, 2020)
